Assays:
[1] = tested on: Mouse Skin Phosphodiesterase; assay: Mouse skin phosphodiesterase (PDE) inhibition test (A); format: biochemical, hairless mice; parameters: key: Active: A compound is considered active if it inhibits more than theophylline, that is, to 50% of control at 1 mM concentration of compound, or to 80% of control of 0.05 mM concentration of compound; details: mouse epidermal PDE, test compound 10 ug./ml., 30° C. 15 min
[2] = tested on: spontaneous hypertensive rats; assay: Anti-hypertensive activity, mean arterial blood pressure of conscious spontaneous hypertensive rats; format: in vivo, rat (adult male spontaneous hypertensive); details: second identical dose at 24th hour, vehicle controls 166
Procedure: These compounds have been tested pharmacologically and found to have such properties with a desirable wide spread between doses producing lowered blood pressure and toxic symptoms. In determining this effect of these compounds on hypertension, adult male, 16-20 weeks old, spontaneous hypertensive rats from Taconic Farms, Germantown, N.Y., weighing about 300 grams are used. The rats are dosed by gavage with the test compounds at the indicated dose. All doses of drug were suspended in 2% starch (2 ml./kg.). A second identical dose of the test compound is given at the 24th hour. The mean arterial blood pressure (MAP) of the conscious rats is measured directly by femoral artery puncture at the 28th hour.

[3] = tested on: Monkey Lung Cyclic AMP Phosphodiesterase; assay: Monkey lung cyclic AMP phosphodiesterase inhibition test (B); format: biochemical, African green monkeys; details: method: monkey lung PDE, 10^-6 M cyclic AMP, compound usually 1 mM or 0.1 mM, 25° C. 20 min
Procedure: The inhibition of phosphodiesterase is determined by the mouse skin and monkey lung phosphodiesterase (PDE) inhibition tests as follows:
(B) MONKEY LUNG INHIBITION
Preparation of Monkey Lung Cyclic AMP Phosphodiesterase
Lung parenchyma of African green monkeys is homogenized in a Waring blender and centrifuged at 40,000 × gravity for 20 minutes. The supernatant is brought to 70% saturation of ammonium sulfate, centrifuged and the pellet redissolved and dialysed, before aliquoting and storage at -20° C.
Assay of Monkey Lung Phosphodiesterase
Phosphodiesterase is assayed by the method of Thompson and Appleman, ibid. An assay tube contains a 0.4 ml. solution of the following: 45 mM tris-HCl buffer, pH 7.4, […], 0.1 mM dithioerythritol, 10^-6 M cyclic AMP, 0.1 uCi [^3 H]-cyclic AMP, and test compound at the desired concentration (usually 1 mM or 0.1 mM). Compounds not readily soluble in water are dissolved at 40 times the desired concentration in methanol, and diluted 20 times with water. If the compound is not dissolved at this time, it is suspended by sonication before being diluted 1:2 into the assay tube. In this case the activity of the enzyme in the presence of the compound is compared to a solvent control (2.5% methanol), although the solvent alone has negligible effect. The reaction is initiated by addition of enzyme and proceeds at 25° C. for 20 minutes. It is terminated by incubation at 100° C. for 2 minutes. The tubes are cooled to 25° C., 0.8 ug of 5'-nucleotidase (Crotolu adamantus toxin) is added to each and the tubes incubated at 25° C. for 30 minutes. A 1 milliliter suspension of Bio-Rad Labs. AGIX8 (about 0.5 ml. of settled resin) is added, the tubes centrifuged at 900 × gravity for 10 minutes and an aliquot of supernatant removed for scintillation counting. The inhibition by the test compound is calculated as: [formula] where `compound` is the cpm in the presence of compound, `control` is the cpm in the absence of compound, and `blank` is the cpm in the absence of enzyme. […] For this reason, control tubes which contained [^3 H]-AMP instead of [^3 H]-cyclic AMP are run in parallel. A correction of the apparent phosphodiesterase activity is made for the rare compound which inhibited the hydrolysis of AMP.

[4] = Dispersion of aerosol suspension on warming after storage; format: physicochemical; details: aerosol in dichlorodifluoromethane with sorbitan trioleate
Procedure: The active ingredient and sorbitan trioleate are placed in a beaker and the dichlorodifluoromethane is added at -40° C. whereupon a suspension is formed. The mixture is sonified, that is, treated with a Sonifier, manufactured by the Branson Sonic Power Co. of Danbury, Conn., as model LS-75 at a current input of 9 amperes for 2 minutes. Additional cold dichlorodifluoromethane is added as necessary to keep the volume at 100 ml. The mixture is uniformly dispersed, and has increased stability resulting from the sonification. Each of six 19 ml. stainless steel containers are filled with 15 ml. of the cold mixture, then valves are inserted and sealed in place.

Row | Compound | Mouse Skin Phosphodiesterase (A) [1] | MAP 28th hour ([2]; 100 mg/kg by gavage) [mm Hg] | Monkey Lung Phosphodiesterase (B) [3] | also measured
1 | Cc1nc(C)n2c(=S)[nH]ncc12 [6,8-Dimethyl-imidazo[1,5-d]-as-triazine-4-(3H)-thione] | Active | 93 |  | 
2 | Cc1nc(C(C)(C)C)n2c(=O)[nH]ncc12 [6-tert-Butyl-8-methyl-imidazo[1,5-d]-as-triazin-4(3H)-one] | Active | 133 | Active | 
3 | Cc1nc(Cc2ccccc2)n2c(=S)[nH]ncc12 [6-Benzyl-8-methyl-imidazo[1,5-d]-as-triazine-4(3H)-thione] | Active |  | Active | 
4 | O=c1[nH]ncc2c(Cl)nc(-c3ccccc3)n12 [8-Chloro-6-phenyl-imidazo[1,5-d]-as-triazin-4(3H)-one] | Active |  | Active | 
5 | CC(C)(C)c1ncc2cn[nH]c(=O)n12 [6-tert-Butyl-imidazo[1,5-d]-as-triazin-4(3H)-one] | Active | 135 |  | 
6 | Cc1nc(-c2ccccc2)n2c(=O)[nH]ncc12 [8-Methyl-6-phenyl-imidazo[1,5-d]-as-triazin-4(3H)-one] | Active | 133 | Active | 
7 | CCCOc1ccccc1-c1ncc2cn[nH]c(=O)n12 [6-o-Propoxyphenyl-imidazo[1,5-d]-as-triazine-4(3H)-one] | Active |  |  | 
8 | CCCc1ncc2cn[nH]c(=S)n12 [6-n-Propyl-imidazo[1,5-d]-as-triazine-4(3H)-thione] | Active | 136 | Active | 
9 | Cc1ncn2c(=S)[nH]ncc12 [8-Methyl-imidazo[1,5-d]-as-triazine-4-(3H)-thione] | Active |  |  | MAP 28th hour ([2]; 25 mg/kg by gavage): 130 mm Hg
10 | O=c1[nH]ncc2cnc(-c3ccccc3)n12 [6-Phenyl-imidazo[1,5-d]-as-triazin-4(3H)-one] | Active | 117 |  | 
11 | CCCc1ncc2cn[nH]c(=O)n12 [6-n-Propyl-imidazo[1,5-d]-as-triazin-4(3H)-one] | Active |  |  | 
12 | Cc1nc(-c2ccccc2)n2c(=S)[nH]ncc12 [8-Methyl-6-phenyl-imidazo[1,5-d]-as-triazine-4-(3H)-thione] | Active | 128 |  | 
13 | Cc1ncn2c(=O)[nH]ncc12 [8-Methyl-imidazo[1,5-d]-as-triazin-4(3H)-one] | Active | 91 |  | 
14 | COCc1ncc2cn[nH]c(=S)n12 [6-Methoxymethyl-imidazo[1,5-d]-as-triazine-4-(3H)-thione] |  | 100 |  | 
15 | O=c1[nH]ncc2c(Br)nc(-c3ccccc3)n12 [8-Bromo-6-phenyl-imidazo[1,5-d]-as-triazin-4(3H)-one] | Active |  | Active | 
16 | CCCc1nc(C)c2cn[nH]c(=O)n12 [8-Methyl-6-n-propyl-imidazo[1,5-d]-as-triazin-4(3H)-one] |  |  |  | MAP 28th hour ([2]; 50 mg/kg by gavage): 127 mm Hg
17 | Cc1nc(C)n2c(=O)[nH]ncc12 [6,8-Dimethyl-imidazo[1,5-d]-as-triazin-4(3H)-one] | Active |  | Active | MAP 28th hour ([2]; 50 mg/kg by gavage): 70 mm Hg
18 | CCCc1nc(C)c2cn[nH]c(=S)n12 [8-Methyl-6-n-propyl-imidazolo[1,5-d]-as-triazine-4(3H)-thione] | Active |  | Active | 
19 | CC(C)c1nc(Cl)c2cn[nH]c(=S)n12 [8-chloro-6-isopropyl-imidazo[1,5-d]-as-triazine-4(3H)-thione] |  |  |  | dispersion after storage [4]: remains dispersed
20 | Cc1ncc2cn[nH]c(=O)n12 [6-Methyl-imidazo[1,5-d]-as-triazin-4(3H)-one] |  | 120 |  | 
21 | O=c1[nH]ncc2cnc(Cc3ccccc3)n12 [6-Benzyl-imidazo[1,5-d]-as-triazin-4(3H)-one] | Active |  |  | 
22 | Cc1nc(Cc2ccccc2)n2c(=O)[nH]ncc12 [6-Benzyl-8-methyl-imidazo[1,5-d]-as-triazin-4(3H)-one] | Active |  |  | 
23 | S=c1[nH]ncc2cncn12 [Imidazo[1,5-d]-as-triazin-4(3H)-thione, Imidazo[1,5-d]-as-triazine-4(3H)-thione] |  | 123 |  | 
